Entries after “also recorded” stand apart in the source; their conditions may differ.
Assays:
all utilized cell lines = experiment: Activity distribution between supernatant, wash and cells, summary over all utilized cell lines; format: in vitro ADME; details: end of incubation period (2 h); range over cell lines
Procedure: (§1) HepG2 cells were cultured in DMEM GlutaMax (Gibco, Paisley, UK) with 10% fetal calf serum (FCS) and with selective antibiotics (penicillin/streptomycin for wildtype, Zeocin (InvivoGen, San Diego, CA, USA) for CYP1A2, and Blasticidin (Gibco, Carlsbad, CA, USA) for CYP2C19 and CYP3A4 cultures). As a negative control, cultures of CHO cultivated in Ham’s F-12 medium (Gibco) with 10% FCS and 2 mM glutamine were added for the radiotracer experiments. Cells were handled under a laminar flow hood (Thermo Scientific^TM Safe 2020, Langenselbold, Germany) and were split once or twice a week by trypsinization. Cell cultures were stored horizontally in a humidified incubator (Heracell240i) at 37 °C and 5% CO2. […] Cell density was determined with a cell counter (CASY® Model TT from Schärfe System, Reutlingen, Germany). […]
Initially, CYP-overexpressing HepG2 and, as controls, HepG2 wildtype, as well as CHO (Chinese hamster ovary) cells, were incubated as an adhered monolayer in a 96-well plate with a relatively high activity concentration of [^18F]1 (25 MBq/mL; workflow according to Figure 1A, upper panel), and the supernatant and cell lysates were investigated by radio-TLC. […] As a result (Table 1), the main fraction of activity was found in the supernatant (64–91%), while only a negligible to low amount of activity was measured in cell lysates (1–16%). […]

[1] = system: human liver microsomes (HLMs); experiment: Microsome assay, human liver microsomes; format: in vitro ADME; details: for Amount of intact tracer: radio-TLC
Procedure: (§2) The stability of [^18F]1 toward liver microsomes was analyzed under oxidative conditions with MLMs (MSMCP, Lot: MS046-C) and HLMs (HMMCPL; Lot: PL050E-B) according to a previously described procedure. In brief, 12.5 µL of the respective microsomes (final 1 mg/mL) were mixed with 110.4 µL of PBS, followed by the addition of 100 µL of [^18F]1 (with 5 MBq and 1% ethanol; final 0.4% ethanol) and 2.1 µL of reference compound (final concentration 50 µM 1), or an equivalent of DMSO. The resulting mixture was mixed at 37 °C for 5 min, and the reaction was then initiated by the addition of 25 µL of NADPH (final 2 mM). After 1 h incubation, the resulting samples were mixed with ice-cold ACN (1/4, v/v) and vortexed for 30 s, placed on ice for 4 min, and finally centrifuged at 13,200 rpm for 5 min at 4 °C. The supernatant was separated and used for further analysis by radio-HPLC (6–10 µL injection volume; System 1b with 25–75% gradient elution) and radio-TLC analysis (2 µL applied on TLC, analysis as described above).

[2] = system: CHO (Chinese hamster ovary) cells; experiment: Radiotracer metabolic stability, CHO cells (negative control), radio-TLC; format: in vitro ADME; details: up to 2 h
Procedure: as §1, with “CO2. During the time of experimental work, the utilized cell lines were regularly checked for mycoplasma.” for “CO2.”
(§3) Incubations with radiotracer compounds were conducted, on the one hand, with radioactive ^18F-labeled compounds alone (time dependency) and, on the other hand, in the presence of 50 µM nonradioactive reference (carrier addition). For the investigation of a time-dependent metabolite formation, 2 µL aliquots were withdrawn from the supernatant, directly spotted onto the TLC plate, and analyzed as described above. […]

HepG2 CYP2C19 [3] = experiment: Competitive coincubation of [18F]1 with competitors, HepG2 CYP2C19; details: 1 h; without additional substances; 120–125 nM [18F]1
Procedure: (§4) Radio thin-layer chromatography (radio-TLC) was carried out on reversed-phase TLC plates (ALUGRAM RP-18W/UV254 from Macherey-Nagel, Düren, Germany) with a mobile phase of 45% ACN in water containing 0.1% trifluoroacetic acid. The samples (2 µL) were spotted onto the TLC plate. The line of origin and the front line were labeled with 1/5 of the sample activity concentration. To track the Rf value of the intact radiotracer, each TLC was spotted with the intact tracer as reference in the middle. Detection of the activity signals was achieved after 10–30 min development on radioluminographic imaging plates (FUJIFILM, Tokyo, Japan) and subsequent readout with Fuji BAS 5000® or Amersham™ Typhoon™ from GE Healthcare (Uppsala, Sweden). The resulting chromatographic profile was analyzed and integrated with the help of AIDA Image Analysis Software (version 5.1). For data depiction, the fraction of each species (intact radiotracer, metabolite, [^18F]fluoride) was plotted.
(§5) Incubations were conducted for up to 2 h in a 96-well plate in KHB with a total incubation volume of 50 µL and an ethanol concentration of 0.4%. For the incubation with radiotracers, an activity of 100–200 kBq/well at the start of the experiment was used.
(§6) Our last interest within this study was to test if the tracer itself could function as an indicator for the conversion of other substrates acting via inhibition of or competition with the CYP enzymes. In this regard, alternative substrates were added to the incubation mixtures with [^18F]1. The investigated substrates covered testosterone, caffeine, progesterone, compound 3, tebufelone, and RWJ63556 [44] (10 µM for all substances). Furthermore, the influence of testosterone on the metabolic turnover of [^18F]1 was investigated over a concentration range of 1–50 µM.
Figure 7 Coincubation of [^18F]1 and different competitors with (A) HepG2 CYP1A2 and (B) HepG2 CYP2C19. […] Each competitor/inhibitor was incubated with [^18F]1 for 1 h followed by radio-TLC analysis. […]

[4] = system: murine liver microsomes (MLMs); experiment: Microsome assay, murine liver microsomes; format: in vitro ADME; details: 1 h incubation
Procedure: as §2

HepG2 CYP1A2 [5] = experiment: Radiotracer metabolic stability, CYP1A2-overexpressing HepG2 cells; format: in vitro ADME, human; details: radio-TLC
Procedure: (§7) CYP-overexpressing human hepatocellular carcinoma cells (HepG2) were previously generated on the basis of subcloning human CYP1A2 [18], CYP2C19 [20], and CYP3A4 [21] cDNA into a lentiviral expression vector. The cDNA expression in the resulting vector was controlled by the human cytomegalovirus (CMV) promoter. The lentivirus expression vectors were used to produce recombinant lentivirus particles according to standard methods to infect HepG2 cells. Infected cells were selected with 3 µg/mL blasticidin for CYP2C19 and CYP3A4 and 500 µg/mL zeocin for CYP1A2 overexpression 48 h after infection. Within 3–4 weeks, antibiotic-resistant cell colonies were picked to obtain single cell-derived HepG2 clones. For more detailed information on the generation procedure of CYP-overexpressing HepG2 cells, see Steinbrecht et al..
(§8) HepG2 cells were cultured in DMEM GlutaMax (Gibco, Paisley, UK) with 10% fetal calf serum (FCS) and with selective antibiotics (penicillin/streptomycin for wildtype, Zeocin (InvivoGen, San Diego, CA, USA) for CYP1A2, and Blasticidin (Gibco, Carlsbad, CA, USA) for CYP2C19 and CYP3A4 cultures). […] Cell density was determined with a cell counter (CASY® Model TT from Schärfe System, Reutlingen, Germany). […]
as §3
UPLC–MS analyses were performed to verify the degradation behavior of the test compounds and to gain insights into the identity of the formed metabolites. […] Additionally, incubations with the nonradioactive references were carried out with 100 nM or 50 µM (according to the carrier-added samples) and analyzed. UPLC–MS/MS was performed using System 2 (55% isocratic elution for quantification of intact compound, or 25–75% gradient for nonradioactive metabolite analysis). […]

HepG2 CYP1A2 [6] = experiment: Competitive coincubation of [18F]1 with competitors, HepG2 CYP1A2; details: 1 h; without any additional substance; 120–125 nM [18F]1
Procedure: as §4, §5, §6
Figure 7 Coincubation of [^18F]1 and different competitors with (A) HepG2 CYP1A2 and (B) HepG2 CYP2C19. […] Each competitor/inhibitor was incubated with [^18F]1 for 1 h followed by radio-TLC analysis. Activity concentrations of 94–197 kBq/well (1.9–3.9 MBq/mL) were used at start of experiment, which correspond to a concentration of 120–125 nM. Statistical analysis performed with Dunnett’s multiple comparison (post hoc test) according to the intact tracer amount (* p < 0.05; *** p < 0.001; **** p < 0.0001; n = 4).

HepG2 CYP2C19 [7] = experiment: Radiotracer metabolic stability, CYP2C19-overexpressing HepG2 cells; format: in vitro ADME, human
Procedure: as §7
(§9) HepG2 cells were cultured in DMEM GlutaMax (Gibco, Paisley, UK) with 10% fetal calf serum (FCS) and with selective antibiotics (penicillin/streptomycin for wildtype, Zeocin (InvivoGen, San Diego, CA, USA) for CYP1A2, and Blasticidin (Gibco, Carlsbad, CA, USA) for CYP2C19 and CYP3A4 cultures). As a negative control, cultures of CHO cultivated in Ham’s F-12 medium (Gibco) with 10% FCS and 2 mM glutamine were added for the radiotracer experiments. Cells were handled under a laminar flow hood (Thermo Scientific^TM Safe 2020, Langenselbold, Germany) and were split once or twice a week by trypsinization. Cell cultures were stored horizontally in a humidified incubator (Heracell240i) at 37 °C and 5% CO2. During the time of experimental work, the utilized cell lines were regularly checked for mycoplasma. Cells were seeded in duplicates into a 96-well plate (CellStar®) with a density of 3 × 10^5 cells/well and cultured until the next day at 37 °C and 5% CO2. Cell density was determined with a cell counter (CASY® Model TT from Schärfe System, Reutlingen, Germany). Before the addition of substrates, cells were washed twice with Krebs–Henseleit buffer (KHB). The HEPES-supplemented Krebs–Henseleit buffer (pH 7.4, KHB) was freshly prepared using HEPES (5.95 g/L), D-glucose (2.0 g/L), magnesium sulfate (0.141 g/L), potassium dihydrogenphosphate (0.16 g/L), potassium chloride (0.35 g/L), sodium chloride (6.9 g/L), calcium chloride dihydrate (0.373 g/L), and sodium bicarbonate (2.1 g/L), followed by adjustment to pH 7.4 with NaOH. The utilized substances within this study were neither found (see Supplementary Materials, Figure S14) nor reported to be cytotoxic within the utilized concentration range and incubation duration.
Incubations with radiotracer compounds were conducted, on the one hand, with radioactive ^18F-labeled compounds alone (time dependency) and, on the other hand, in the presence of 50 µM nonradioactive reference (carrier addition). For the investigation of a time-dependent metabolite formation, 2 µL aliquots were withdrawn from the supernatant, directly spotted onto the TLC plate, and analyzed as described above. The same procedure was performed for carrier-added samples.
UPLC–MS analyses were performed to verify the degradation behavior of the test compounds and to gain insights into the identity of the formed metabolites. Using radiotracer incubation samples, 40 µL aliquots of the carrier-added incubations were withdrawn followed by addition of 160 µL of ACN and centrifugation (14,000 rpm (18,800–20,800× g), 4 °C, 5 min). Samples were frozen at −20 °C, and activity was allowed to decay before further mass-spectrometric analyses. Additionally, incubations with the nonradioactive references were carried out with 100 nM or 50 µM (according to the carrier-added samples) and analyzed. UPLC–MS/MS was performed using System 2 (55% isocratic elution for quantification of intact compound, or 25–75% gradient for nonradioactive metabolite analysis). The MRM mode was optimized with a solution of respective reference compounds diluted in eluent. […]

HepG2 wildtype = experiment: Radiotracer metabolic stability, HepG2 wildtype, radio-TLC; format: in vitro ADME, human; details: up to 2 h
Procedure: as §7
as §8, with “cultures). As a negative control, cultures of CHO cultivated in Ham’s F-12 medium (Gibco) with 10% FCS and 2 mM glutamine were added for the radiotracer experiments.” for “cultures).”

HepG2 CYP3A4 = experiment: Radiotracer metabolic stability, CYP3A4-overexpressing HepG2 cells; format: in vitro ADME, human; details: HepG2 CYP3A4, up to 2 h; radio-TLC
Procedure: as §7
as §8, with “cultures). As a negative control, cultures of CHO cultivated in Ham’s F-12 medium (Gibco) with 10% FCS and 2 mM glutamine were added for the radiotracer experiments.” for “cultures).”

[8] = Radiotracer incubation in buffer only (control, without any cell line), radio-TLC; format: in vitro ADME
Procedure: as §9, with “The utilized substances within this study were neither found (see Supplementary Materials, Figure S14) nor reported to be cytotoxic within the utilized concentration range and incubation duration.” left out
as §3

[9] = 1 h, CA versus without carrier addition

Fraction of activity in cell lysates (all utilized cell lines): 1–16% | Fraction of activity in supernatant (all utilized cell lines): 64–91% | Increase of intact tracer amount with carrier addition [1, 9]: sevenfold | Amount of intact tracer ([1]; 1 h, carrier-added (CA), 50 µM 1): 30.3% | Amount of intact tracer ([1]; 1 h, without carrier addition, 38 MBq/mL (931 nM), 1 mg/mL microsomes, NADPH): 4.2% | Formation of second metabolite (M2) ([1]; 1 h incubation): observed | Intact tracer [18F]1 remaining (HepG2 CYP2C19 [3]): 11% | Formation of second metabolite (M2) [4]: did not lead to the second metabolite | Intact tracer in supernatant (HepG2 CYP1A2 [5]; 2 h incubation, 2–4 MBq/mL (28–187 nM)): 14.6% | Intact tracer [18F]1 remaining (HepG2 CYP1A2 [6]): 33% | Increase of intact tracer amount with carrier addition (HepG2 CYP2C19 [7]; [9]): 10 fold | Amount of intact tracer (HepG2 CYP2C19 [7]; 1 h, carrier-added (CA), 50 µM 1, radio-TLC): 67.2% | Amount of intact tracer (HepG2 CYP2C19 [7]; 1 h, without carrier addition, 24 MBq/mL (460 nM), radio-TLC): 6.6% | Intact tracer in supernatant (HepG2 CYP2C19 [7]; 1 h incubation, 2–4 MBq/mL (28–187 nM), radio-TLC): 1.3% | Metabolic turnover / stability of radiotracer (in words) (HepG2 wildtype): mainly intact radiotracer was found | Metabolic turnover / stability of radiotracer (in words) (HepG2 CYP3A4): mainly intact radiotracer was found | Metabolic turnover / stability of radiotracer (in words) ([8]; buffer only, up to 2 h, radio-TLC): no metabolic turnover | Defluorination without additional enzymes in the incubation buffer (KHB) ([8]; reference incubation without any cell lines): to a minor extent
SMILES: Cc1ccc(-c2cc(C[18F])nn2-c2ccc(S(C)(=O)=O)cc2)cc1 [[^18F]1, 3-([^18F]fluoromethyl)-1-[4-(methylsulfonyl)phenyl]-5-(p-tolyl)-1H-pyrazole]
Metabolic turnover / stability of radiotracer (in words) [2]: mainly intact radiotracer was found; also recorded: no metabolic turnover | Metabolic turnover / stability of radiotracer (in words) (HepG2 CYP1A2 [5]; HepG2 CYP1A2, up to 2 h): formation of radiometabolites was observed | Metabolic turnover / stability of radiotracer (in words) (HepG2 CYP2C19 [7]; HepG2 CYP2C19, up to 2 h, radio-TLC): formation of radiometabolites was observed
